In PubChem BioAssay (NCI):
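Method: 48-hour compound exposure of cells in 96-well plates, five concentrations, linear interpolation of endpoints. GI50 marks 50% less growth. TGI: concentration producing complete growth inhibition.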

What was measured:
Assay in all cases: NCI anticancer screen, dose series, 48 h
MDA-MB-231 breast = test system: MDA-MB-231 breast
SK-MEL-28 melanoma = test system: SK-MEL-28 melanoma
OVCAR-5 ovarian = test system: OVCAR-5 ovarian
ACHN renal = test system: ACHN renal
UACC-62 melanoma = test system: UACC-62 melanoma
LOX IMVI melanoma = test system: LOX IMVI melanoma
HS 578T breast = test system: HS 578T breast
OVCAR-8 ovarian = test system: OVCAR-8 ovarian
SK-MEL-2 melanoma = test system: SK-MEL-2 melanoma
SF-295 CNS = test system: SF-295 CNS
U251 CNS = test system: U251 CNS
NCI-H522 lung = test system: NCI-H522 lung
SK-OV-3 ovarian = test system: SK-OV-3 ovarian
T-47D breast = test system: T-47D breast
UO-31 renal = test system: UO-31 renal
IGROV1 ovarian = test system: IGROV1 ovarian
HOP-92 NSCLC = test system: HOP-92 NSCLC
MOLT-4 leukemia = test system: MOLT-4 leukemia
SK-MEL-5 melanoma = test system: SK-MEL-5 melanoma
HOP-62 NSCLC = test system: HOP-62 NSCLC
BT-549 breast = test system: BT-549 breast
NCI/ADR-RES ovarian = test system: NCI/ADR-RES ovarian
PC-3 prostate = test system: PC-3 prostate
SF-268 CNS = test system: SF-268 CNS
OVCAR-4 ovarian = test system: OVCAR-4 ovarian
NCI-H23 lung = test system: NCI-H23 lung
A498 renal = test system: A498 renal
NCI-H226 lung = test system: NCI-H226 lung
HCC-2998 colon = test system: HCC-2998 colon
SR leukemia = test system: SR leukemia
SF-539 CNS = test system: SF-539 CNS
HL-60(TB) leukemia = test system: HL-60(TB) leukemia
MCF7 breast = test system: MCF7 breast
KM12 colon = test system: KM12 colon
HT29 colon = test system: HT29 colon
SNB-19 CNS = test system: SNB-19 CNS
DU-145 prostate = test system: DU-145 prostate
HCT-15 colon = test system: HCT-15 colon
EKVX NSCLC = test system: EKVX NSCLC
NCI-H460 lung = test system: NCI-H460 lung
SW-620 colon = test system: SW-620 colon
SN12C renal = test system: SN12C renal
OVCAR-3 ovarian = test system: OVCAR-3 ovarian
CCRF-CEM leukemia = test system: CCRF-CEM leukemia
A549 NSCLC = test system: A549 NSCLC
786-0 renal = test system: 786-0 renal
HCT-116 colon = test system: HCT-116 colon
TK-10 renal = test system: TK-10 renal
RPMI-8226 leukemia = test system: RPMI-8226 leukemia
MDA-MB-435 = test system: MDA-MB-435
UACC-257 melanoma = test system: UACC-257 melanoma
MALME-3M melanoma = test system: MALME-3M melanoma
M14 melanoma = test system: M14 melanoma
SNB-75 CNS = test system: SNB-75 CNS
CAKI-1 renal = test system: CAKI-1 renal
COLO 205 colon = test system: COLO 205 colon

CCOC(=O)c1cc(C(=O)c2cc(OC)c(OC)c(OC)c2)n2nc(C)ccc12
GI50 (MDA-MB-231 breast): 0.524 µM
TGI (MDA-MB-231 breast): > 100 µM
GI50 (SK-MEL-28 melanoma): 12 µM
TGI (SK-MEL-28 melanoma): > 100 µM
GI50 (OVCAR-5 ovarian): 0.472 µM
TGI (OVCAR-5 ovarian): > 100 µM
GI50 (ACHN renal): 0.524 µM
TGI (ACHN renal): > 100 µM
GI50 (UACC-62 melanoma): 0.0615 µM
TGI (UACC-62 melanoma): > 100 µM
GI50 (LOX IMVI melanoma): 0.498 µM
TGI (LOX IMVI melanoma): > 100 µM
GI50 (HS 578T breast): 0.19 µM
TGI (HS 578T breast): > 100 µM
GI50 (OVCAR-8 ovarian): 0.518 µM
TGI (OVCAR-8 ovarian): > 100 µM
GI50 (SK-MEL-2 melanoma): 0.495 µM
TGI (SK-MEL-2 melanoma): > 100 µM
GI50 (SF-295 CNS): 0.0657 µM
TGI (SF-295 CNS): > 100 µM
GI50 (U251 CNS): 0.331 µM
TGI (U251 CNS): > 100 µM
GI50 (NCI-H522 lung): 0.171 µM
TGI (NCI-H522 lung): > 100 µM
GI50 (SK-OV-3 ovarian): 0.546 µM
TGI (SK-OV-3 ovarian): > 100 µM
GI50 (T-47D breast): > 100 µM
TGI (T-47D breast): > 100 µM
GI50 (UO-31 renal): 0.452 µM
TGI (UO-31 renal): > 100 µM
GI50 (IGROV1 ovarian): 0.379 µM
TGI (IGROV1 ovarian): > 100 µM
GI50 (HOP-92 NSCLC): 3.52 µM
TGI (HOP-92 NSCLC): > 100 µM
GI50 (MOLT-4 leukemia): 0.396 µM
TGI (MOLT-4 leukemia): > 100 µM
GI50 (SK-MEL-5 melanoma): 0.0585 µM
TGI (SK-MEL-5 melanoma): 3.32 µM
GI50 (HOP-62 NSCLC): 0.398 µM
TGI (HOP-62 NSCLC): > 100 µM
GI50 (BT-549 breast): 0.878 µM
TGI (BT-549 breast): > 100 µM
GI50 (NCI/ADR-RES ovarian): 0.123 µM
TGI (NCI/ADR-RES ovarian): 1.93 µM
GI50 (PC-3 prostate): 0.0939 µM
TGI (PC-3 prostate): > 100 µM
GI50 (SF-268 CNS): 0.55 µM
TGI (SF-268 CNS): > 100 µM
GI50 (OVCAR-4 ovarian): 1.72 µM
TGI (OVCAR-4 ovarian): > 100 µM
GI50 (NCI-H23 lung): 0.418 µM
TGI (NCI-H23 lung): > 100 µM
GI50 (A498 renal): 0.0762 µM
TGI (A498 renal): 0.931 µM
GI50 (NCI-H226 lung): 45 µM
TGI (NCI-H226 lung): > 100 µM
GI50 (HCC-2998 colon): 0.493 µM
TGI (HCC-2998 colon): > 100 µM
GI50 (SR leukemia): 0.0481 µM
TGI (SR leukemia): > 100 µM
GI50 (SF-539 CNS): 0.13 µM
TGI (SF-539 CNS): 0.771 µM
GI50 (HL-60(TB) leukemia): 0.16 µM
TGI (HL-60(TB) leukemia): 0.588 µM
GI50 (MCF7 breast): 0.0481 µM
TGI (MCF7 breast): > 100 µM
GI50 (KM12 colon): 0.0577 µM
TGI (KM12 colon): > 100 µM
GI50 (HT29 colon): 0.133 µM
TGI (HT29 colon): > 100 µM
GI50 (SNB-19 CNS): 0.42 µM
TGI (SNB-19 CNS): > 100 µM
GI50 (DU-145 prostate): 0.391 µM
TGI (DU-145 prostate): > 100 µM
GI50 (HCT-15 colon): 0.0844 µM
TGI (HCT-15 colon): > 100 µM
GI50 (EKVX NSCLC): 0.479 µM
TGI (EKVX NSCLC): > 100 µM
GI50 (NCI-H460 lung): 0.133 µM
TGI (NCI-H460 lung): > 100 µM
GI50 (SW-620 colon): 0.0687 µM
TGI (SW-620 colon): > 100 µM
GI50 (SN12C renal): 0.665 µM
TGI (SN12C renal): > 100 µM
GI50 (OVCAR-3 ovarian): 0.0648 µM
TGI (OVCAR-3 ovarian): 1.27 µM
GI50 (CCRF-CEM leukemia): 0.212 µM
TGI (CCRF-CEM leukemia): > 100 µM
GI50 (A549 NSCLC): 0.223 µM
TGI (A549 NSCLC): > 100 µM
GI50 (786-0 renal): 0.335 µM
TGI (786-0 renal): > 100 µM
GI50 (HCT-116 colon): 0.164 µM
TGI (HCT-116 colon): > 100 µM
GI50 (TK-10 renal): > 100 µM
TGI (TK-10 renal): > 100 µM

CCOC(=O)C1C(c2ccc3c(c2)OCO3)c2c([nH][nH]c2=O)CC1(O)OCC (stereo not drawn)
TGI (RPMI-8226 leukemia): > 100 µM
TGI (MDA-MB-231 breast): > 100 µM
TGI (SK-MEL-28 melanoma): > 100 µM
TGI (OVCAR-5 ovarian): > 100 µM
TGI (ACHN renal): > 100 µM
TGI (MDA-MB-435): > 100 µM
TGI (UACC-62 melanoma): > 100 µM
TGI (LOX IMVI melanoma): > 100 µM
TGI (HS 578T breast): > 100 µM
TGI (OVCAR-8 ovarian): > 100 µM
TGI (SK-MEL-2 melanoma): > 100 µM
TGI (SF-295 CNS): > 100 µM
TGI (U251 CNS): > 100 µM
TGI (NCI-H522 lung): > 100 µM
TGI (T-47D breast): > 100 µM
TGI (UO-31 renal): > 100 µM
TGI (IGROV1 ovarian): > 100 µM
TGI (HOP-92 NSCLC): > 100 µM
TGI (MOLT-4 leukemia): > 100 µM
TGI (SK-MEL-5 melanoma): > 100 µM
TGI (HOP-62 NSCLC): > 100 µM
TGI (NCI/ADR-RES ovarian): > 100 µM
TGI (PC-3 prostate): > 100 µM
TGI (SF-268 CNS): > 100 µM
TGI (OVCAR-4 ovarian): > 100 µM
TGI (NCI-H23 lung): > 100 µM
TGI (UACC-257 melanoma): > 100 µM
TGI (A498 renal): > 100 µM
TGI (HCC-2998 colon): > 100 µM
TGI (MALME-3M melanoma): > 100 µM
TGI (SR leukemia): > 100 µM
TGI (SF-539 CNS): > 100 µM
TGI (M14 melanoma): > 100 µM
TGI (SNB-75 CNS): > 100 µM
TGI (HL-60(TB) leukemia): > 100 µM
TGI (MCF7 breast): > 100 µM
TGI (KM12 colon): > 100 µM
TGI (HT29 colon): > 100 µM
TGI (CAKI-1 renal): > 100 µM
TGI (DU-145 prostate): > 100 µM
TGI (HCT-15 colon): > 100 µM
TGI (COLO 205 colon): > 100 µM
TGI (EKVX NSCLC): > 100 µM
TGI (NCI-H460 lung): > 100 µM
TGI (SW-620 colon): > 100 µM
TGI (SN12C renal): > 100 µM
TGI (OVCAR-3 ovarian): > 100 µM
TGI (CCRF-CEM leukemia): > 100 µM
TGI (A549 NSCLC): > 100 µM
TGI (786-0 renal): > 100 µM
TGI (HCT-116 colon): > 100 µM
TGI (TK-10 renal): > 100 µM
